Key:
[1] = tested on: HCT-116 MTAP-deleted tumors; test: Anti-tumor efficacy in HCT-116 MTAP-deleted mouse xenograft; type: in vivo; conditions: Day fourteen
Method: (§1) The effect of Compound A and Compound B as single-agent anti-tumor agents and in combination was assessed in the HCT-116 human colon tumor cell line, MTAP isogenic pair (MTAP proficient (WT) or MTAP-deleted). Cells were expanded in DMEM/F12 GlutaMAX (Fisher Scientific, Catalog Number 10-565-018) with 10% fetal bovine serum. These cells were free of mycoplasma and authenticated as HCT-116 by STR profiling. Two and a half million cells in log growth phase were resuspended in Hanks Balanced Salt Solution containing 50% Matrigel and implanted subcutaneously into the flank of each recipient female CB17/lcr-Prkd^scid/lcrlcoCrl mouse. Mice were housed in microisolator cages with corn cob bedding with additional enrichment consisting of sterile nesting material (Innovive) and Bio-huts (Bio-Serv). Water (Innovive) and diet (Teklad Global 19% Protein Extruded Diet 2919, Irradiated) were provided ad libitum. The environment was maintained on a 12-hour light cycle at approximately 68-72° F. and 40-60% relative humidity.
(§2) Tumor Volume (TV) was calculated using the following formula: TV (mm^3)=(width×width×length)/2. No dose holidays were provided for during the study and all mice were euthanized following the final dose on Day fourteen. Tumor growth inhibition (TGI) was calculated by [(TV controlfinal−TV treatedfinal)/(TV controlfinal−TV controlinitial)×100]. TV was analyzed for statistical significance utilizing GraphPad Prism version 9.1.0. Repeated Measures 2-Way ANOVA with Tukey's Multiple Comparisons was utilized, and P-values were presented from the final tumor measurement and were considered statistically significant if less than 0.05.
(§3) Mean tumor volume at dosing start was approximately 128-145 mm^3, with seven mice randomized to each treatment group. The study design was identical for both models, with the study consisting of six treatment groups. Mice were dosed orally, once per day, with Vehicle, Compound A at 5 mg/kg, Compound B at 9.375 or 18.75 mg/kg, or Compound A at 5 mg/kg and Compound B at 9.375 mg/kg, or Compound A at 5 mg/kg and Compound B at 18.75 mg/kg. The doses were staggered with Compound A given first and Compound B administered 2 hours later. Likewise, the Vehicle B (for Compound B, Saline) was administered to animals 2 hours later than the Vehicle A (for Compound A, 0.5% 400 cps methylcellulose with 0.5% Tween-80 in sterile water).

HCT-116 MTAP WT tumors = test: Anti-tumor efficacy in HCT-116 MTAP WT mouse xenograft; type: in vivo; conditions: Day fourteen
Method: as §1, §2, §3

BxPC-3 tumors = test: Anti-tumor efficacy in pancreatic xenograft BxPC-3; type: in vivo, mouse; conditions: Day 28
Method: The BxPC-3 tumor cell line was maintained in vitro as a monolayer culture in RPMI 1640 medium supplemented with 10% fetal bovine serum at 37° C. in an atmosphere of 5% CO2 in air. The tumor cells were routinely sub-cultured, not to exceed 4-5 passages. The cells growing in an exponential growth phase were harvested and counted for tumor inoculation. Each mouse was inoculated subcutaneously on the right flank with 5 million BxPC-3 tumor cells in 0.1 mL RPMI 1640 and Matrigel mixture (1:1 ratio) for tumor development.
Tumor Volume (TV) was calculated using the following formula: TV (mm^3)=(width×width×length)/2. No dose holidays were provided for during the study and all mice were euthanized following the final dose on Day 28. Tumor growth inhibition (TGI) was calculated by [(TV controlfinal−TV treatedfinal)/(TV controlfinal−TV controlinitial)×100]. TV was analyzed for statistical significance using GraphPad Prism version 9.1.0. Repeated Measures 2-Way ANOVA with Tukey's Multiple Comparisons was utilized, and P-values were presented from the final tumor measurement and were considered statistically significant if less than 0.05. The treatment started when the mean tumor volume reached about 197 mm^3. Mice were then randomly assigned to respective groups so that the mean starting tumor volume was the same among groups. Mice were dosed orally, once per day, with Vehicle, Compound A at 10 mg/kg, Compound B at 9.375 or 18.75 mg/kg, or Compound A at 10 mg/kg and Compound B at 9.375 mg/kg, or Compound A at 10 mg/kg and Compound B at 18.75 mg/kg. The Doses were staggered with Compound A given first and Compound B administrated 2 hours later. Likewise, the Vehicle B (for Compound B, Saline) was administrated to animals 2 hours later than the Vehicle A (for Compound A, 0.5% 400 cps methylcellulose with 0.5% Tween-80 in sterile water).

[2] = tested on: KP4 pancreatic cancer cell line; test: 5-day proliferation screening, combination synergy (HSA, Loewe, Bliss); type: cell-based; conditions: HSA and Loewe models, single agent activity of Compound B
Method: (§4) A 4-day proliferation screening was done in colorectal cancer lines HCT116 and HCT116 MTAP−/− (CRISPR Knock-out), and a 5-day proliferation screening was performed in pancreatic cancer cell lines BxPC3, KP4 and lung cancer line, NCI-H838. The nuclei were fluorescent tagged for all the cell lines. Combinations included a 5-fold titration from 10 uM for MAT2Ai (Compound A) and 5-fold titration from 20 uM for Type1 PRMTi (Compound B). Cells were plated at a seeding density 1000 cells/well in a 96-well format 24h before treatment and treated the following day with an 8×8 double matrix titration (five-fold dilution series) of Compound A (MAT2Ai) and Compound B (Type I PRMTi). Triplicates were run for each data point. Nuclear count was measured at the end point using the IncuCyte S3 Live-Cell Analysis System. Average fluorescence of cells treated with DMSO was set to 100% and the % viable cells were calculated accordingly. Dose response curves for single drug activity and drug-drug synergy for combinations were generated using Combenefit software. Synergy was evaluated using HSA, Loewe, and Bliss models.

[3] = tested on: NCI-H838 lung cancer line; test: as above; type: cell-based; conditions: HSA and Loewe models, single agent activity of Compound B
Method: as §4

[4] = Compound A 5 mg/kg orally once per day
[5] = Compound A 10 mg/kg orally once per day
[6] = Compound B 9.375 mg/kg orally once per day
[7] = Compound B 18.75 mg/kg orally once per day

| SMILES | Final TV (mean) [1, 4] [mm^3] | TGI (tumor growth inhibition) [1, 4] [%] | Final TV (mean) (HCT-116 MTAP WT tumors; [4]) [mm^3] | TGI (tumor growth inhibition) (HCT-116 MTAP WT tumors; [4]) [%] | Final TV (mean) (BxPC-3 tumors; [5]) [mm^3] | TGI (tumor growth inhibition) (BxPC-3 tumors; [5]) [%] | Final TV (mean) [1, 6] [mm^3] | TGI (tumor growth inhibition) [1, 6] [%] | Final TV (mean) [1, 7] [mm^3] | TGI (tumor growth inhibition) [1, 7] [%] | Final TV (mean) (HCT-116 MTAP WT tumors; [6]) [mm^3] | TGI (tumor growth inhibition) (HCT-116 MTAP WT tumors; [6]) [%] | Final TV (mean) (HCT-116 MTAP WT tumors; [7]) [mm^3] | TGI (tumor growth inhibition) (HCT-116 MTAP WT tumors; [7]) [%] | Final TV (mean) (BxPC-3 tumors; [6]) [mm^3] | TGI (tumor growth inhibition) (BxPC-3 tumors; [6]) [%] | Final TV (mean) (BxPC-3 tumors; [7]) [mm^3] | TGI (tumor growth inhibition) (BxPC-3 tumors; [7]) [%] | concentration of Compound B above which modest cytotoxicity observed [2] | concentration of Compound B above which modest cytotoxicity observed [3] |
| --- | --- | --- | --- | --- | --- | --- | --- | --- | --- | --- | --- | --- | --- | --- | --- | --- | --- | --- | --- | --- |
| Nc1nc(=O)n(-c2ccccc2Cl)c2nc(C(F)(F)F)ccc12 [Compound A] | 232 | 68 | 539 | 56 | 686 | 37 | – | – | – | – | – | – | – | – | – | – | – | – | – | – |
| CCOCC1(COCC)CCC(c2n[nH]cc2CN(C)CCNC)CC1 [Compound B] | – | – | – | – | – | – | 441 | 4 | 357 | 30 | 928 | 13 | 907 | 16 | 638 | 44 | 415 | 72 | above 0.8 uM | above 0.16 uM |

From patent US20240269143A1, “COMBINATION THERAPY COMPRISING A MAT2A INHIBITOR AND TYPE I PRMT INHIBITOR” (IDEAYA BIOSCIENCES, INC., priority 2021, published 2024)
